Results from ChEMBL document CHEMBL1201861, “Genomics of Drug Sensitity in Cancer screening data, Wellcome Trust Sanger Institute”.

Experiments:
Test in all cases: cells
Conditions in all cases: Homo sapiens
NCI-H1299 = type: functional, cell-based;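 also: growth inhibition of human NCI-H1299 cells, read out by a cell viability assay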
Description: SANGER: Inhibition of human NCI-H1299 cell growth in a cell viability assay.

HDLM-2 = type: functional, cell-based;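 also: cell viability assay measuring suppression of HDLM-2 proliferation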
Description: SANGER: Inhibition of human HDLM-2 cell growth in a cell viability assay.

DMS-114 = type: functional, cell-based
TE-11 = type: functional, cell-based;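 also: growth inhibition of human TE-11 cells, read out by a cell viability assay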
Description: SANGER: Inhibition of human TE-11 cell growth in a cell viability assay.

MHH-PREB-1 = type: functional, cell-based;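 also: cell viability assay measuring inhibition of proliferation of human MHH-PREB-1 cells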
Description: SANGER: Inhibition of human MHH-PREB-1 cell growth in a cell viability assay.

C8166 = type: functional, cell-based;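 also: growth inhibition of human C8166 cells measured by a cell viability assay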
Description: SANGER: Inhibition of human C8166 cell growth in a cell viability assay.

NOS-1 = type: functional, cell-based;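 also: growth inhibition of the human NOS-1 cell line, read out with a cell viability assay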
Description: SANGER: Inhibition of human NOS-1 cell growth in a cell viability assay.

A3-KAW = type: functional, cell-based;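 also: growth inhibition of human A3-KAW cells, read out with a cell viability assay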
Description: SANGER: Inhibition of human A3-KAW cell growth in a cell viability assay.

ES6 = type: functional, cell-based;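 also: growth inhibition of human ES6 cells, read out with a cell viability assay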
Description: SANGER: Inhibition of human ES6 cell growth in a cell viability assay.

MS-1 = type: functional, cell-based
Description: SANGER: Inhibition of human MS-1 cell growth in a cell viability assay.

LAMA-84 = type: functional, cell-based;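 also: growth inhibition of LAMA-84 cells, read out with a cell viability assay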
Description: SANGER: Inhibition of human LAMA-84 cell growth in a cell viability assay.

MC116 = type: functional, cell-based;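 also: growth inhibition of MC116 cells, read out with a cell viability assay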
Description: SANGER: Inhibition of human MC116 cell growth in a cell viability assay.

ES7 = type: functional, cell-based;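 also: growth inhibition of cultured human ES7 cells, read out as cell viability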
Description: SANGER: Inhibition of human ES7 cell growth in a cell viability assay.

TK-10 = type: functional, cell-based;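 also: growth inhibition of TK-10 cells, read out in a cell viability assay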
Description: SANGER: Inhibition of human TK10 cell growth in a cell viability assay.

RCC10RGB = type: functional, cell-based;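 also: growth inhibition of human RCC10RGB cells, read out by a cell viability assay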
Description: SANGER: Inhibition of human RCC10RGB cell growth in a cell viability assay.

IST-MEL1 = type: functional, cell-based;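 also: growth inhibition of the cell line, read out with a cell viability assay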
Description: SANGER: Inhibition of human IST-MEL1 cell growth in a cell viability assay.

L-363 = type: functional, cell-based
Description: SANGER: Inhibition of human L-363 cell growth in a cell viability assay.

SF-126 = type: functional, cell-based;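 also: growth inhibition of human SF126 cells, read out with a cell viability assay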
Description: SANGER: Inhibition of human SF126 cell growth in a cell viability assay.

TE-12 = type: functional, cell-based;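 also: growth inhibition of TE-12 cells, read out by a cell viability assay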
Description: SANGER: Inhibition of human TE-12 cell growth in a cell viability assay.

NB5 = type: functional, cell-based;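 also: growth inhibition of NB5 cells, read out as cell viability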
Description: SANGER: Inhibition of human NB5 cell growth in a cell viability assay.

A704 = type: functional, cell-based;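 also: growth inhibition of human A704 cells, read out with a cell viability assay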
Description: SANGER: Inhibition of human A704 cell growth in a cell viability assay.

Calu-6 = type: functional, cell-based;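 also: growth of human Calu-6 cells, read out by a cell viability assay, IC50 marking inhibition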
Description: SANGER: Inhibition of human Calu-6 cell growth in a cell viability assay.

DJM-1 = type: functional, cell-based;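 also: growth inhibition of human DJM-1 cells, read out by a cell viability assay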
Description: SANGER: Inhibition of human DJM-1 cell growth in a cell viability assay.

IA-LM = type: functional, cell-based;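 also: cell viability assay measuring growth inhibition of human IA-LM cells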
Description: SANGER: Inhibition of human IA-LM cell growth in a cell viability assay.

BB65-RCC = type: functional, cell-based;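 also: growth inhibition of the cell line, measured with a cell viability assay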
Description: SANGER: Inhibition of human BB65-RCC cell growth in a cell viability assay.

EM-2 = type: functional, cell-based;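 also: growth inhibition of EM-2 cells, read out with a cell viability assay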
Description: SANGER: Inhibition of human EM-2 cell growth in a cell viability assay.

KGN = type: functional, cell-based;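 also: growth inhibition of KGN cells, read out with a cell viability assay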
Description: SANGER: Inhibition of human KGN cell growth in a cell viability assay.

NCI-H1770 = type: functional, cell-based;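 also: growth inhibition of NCI-H1770 cells determined with a viability readout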
Description: SANGER: Inhibition of human NCI-H1770 cell growth in a cell viability assay.

MLMA = type: functional, cell-based;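 also: growth inhibition of MLMA cells (human), determined through a cell viability readout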
Description: SANGER: Inhibition of human MLMA cell growth in a cell viability assay.

RPMI-8866 = type: functional, cell-based
Description: SANGER: Inhibition of human RPMI-8866 cell growth in a cell viability assay.

no-10 = type: functional, cell-based;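 also: growth inhibition of no-10 cells, read out with a cell viability assay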
Description: SANGER: Inhibition of human no-10 cell growth in a cell viability assay.

MZ7-mel = type: functional, cell-based;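 also: growth inhibition of human MZ7-mel cells, measured by a cell viability assay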
Description: SANGER: Inhibition of human MZ7-mel cell growth in a cell viability assay.

SK-MEL-2 = type: functional, cell-based;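 also: growth inhibition of human SK-MEL-2 cells measured with a cell viability assay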
Description: SANGER: Inhibition of human SK-MEL-2 cell growth in a cell viability assay.

HCC2218 = type: functional, cell-based;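 also: cell viability assay read-out, with IC50 given as the concentration that inhibits growth of the cell line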
Description: SANGER: Inhibition of human HCC2218 cell growth in a cell viability assay.

JVM-3 = type: functional, cell-based;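 also: growth inhibition of human JVM-3 cells, read out with a cell viability assay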
Description: SANGER: Inhibition of human JVM-3 cell growth in a cell viability assay.

GCIY = type: functional, cell-based;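 also: growth inhibition of the human GCIY cell line, read out by a cell viability assay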
Description: SANGER: Inhibition of human GCIY cell growth in a cell viability assay.

SK-N-DZ = type: functional, cell-based;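 also: growth inhibition of the cancer cell line, read out through a viability assay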
Description: SANGER: Inhibition of human SK-N-DZ cell growth in a cell viability assay.

A388 = type: functional, cell-based;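 also: growth inhibition of human A388 cells, read out with a cell viability assay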
Description: SANGER: Inhibition of human A388 cell growth in a cell viability assay.

MZ1-PC = type: functional, cell-based;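 also: cell viability assay measuring growth inhibition of human MZ1-PC cells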
Description: SANGER: Inhibition of human MZ1-PC cell growth in a cell viability assay.

HCC1187 = type: functional, cell-based;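 also: growth inhibition of HCC1187 cells, read out with a cell viability assay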
Description: SANGER: Inhibition of human HCC1187 cell growth in a cell viability assay.

ES8 = type: functional, cell-based;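 also: growth inhibition of human ES8 cells, read out with a cell viability assay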
Description: SANGER: Inhibition of human ES8 cell growth in a cell viability assay.

MV4-11 = type: functional, cell-based, MV-4-11;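 also: cell viability readout measuring growth inhibition of human MV-4-11 cells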
Description: SANGER: Inhibition of human MV-4-11 cell growth in a cell viability assay.

NCI-H23 = type: functional, cell-based;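 also: cell viability assay measuring growth inhibition of NCI-H23 cells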
Description: SANGER: Inhibition of human NCI-H23 cell growth in a cell viability assay.

LU-139 = type: functional, cell-based
Description: SANGER: Inhibition of human LU-139 cell growth in a cell viability assay.

NB69 = type: functional, cell-based;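 also: growth inhibition of NB69 cells, determined by a cell viability assay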
Description: SANGER: Inhibition of human NB69 cell growth in a cell viability assay.

ES3 = type: functional, cell-based;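 also: growth inhibition of ES3 cells, read out with a cell viability assay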
Description: SANGER: Inhibition of human ES3 cell growth in a cell viability assay.

KP-N-YS = type: functional, cell-based;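 also: cell viability assay measuring inhibition of cell line growth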
Description: SANGER: Inhibition of human KP-N-YS cell growth in a cell viability assay.

NCI-H720 = type: functional, cell-based;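 also: growth inhibition of human NCI-H720 cells determined by a cell viability assay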
Description: SANGER: Inhibition of human NCI-H720 cell growth in a cell viability assay.

NCI-H82 = type: functional, cell-based;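 also: growth inhibition of NCI-H82 cells, measured with a cell viability readout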
Description: SANGER: Inhibition of human NCI-H82 cell growth in a cell viability assay.

DEL = type: functional, cell-based;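 also: growth inhibition of the human DEL cell line, read out with a cell viability assay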
Description: SANGER: Inhibition of human DEL cell growth in a cell viability assay.

SBC-1 = type: functional, cell-based;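 also: cell viability assay measuring growth inhibition of the SBC-1 cell line, IC50 being the concentration that halves growth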
Description: SANGER: Inhibition of human SBC-1 cell growth in a cell viability assay.

NCI-H747 = type: functional, cell-based;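 also: growth inhibition of human NCI-H747 cells, read out by a cell viability assay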
Description: SANGER: Inhibition of human NCI-H747 cell growth in a cell viability assay.

SNU1 = type: functional, cell-based;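 also: growth inhibition of human NCI-SNU-1 cells, measured with a cell viability assay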
Description: SANGER: Inhibition of human NCI-SNU-1 cell growth in a cell viability assay.

NCI-H446 = type: functional, cell-based
Description: SANGER: Inhibition of human NCI-H446 cell growth in a cell viability assay.

Becker = type: functional, cell-based
Description: SANGER: Inhibition of human Becker cell growth in a cell viability assay.

RXF 393 = type: functional, cell-based
Description: SANGER: Inhibition of human RXF393 cell growth in a cell viability assay.

PSN1 = type: functional, cell-based
Description: SANGER: Inhibition of human PSN1 cell growth in a cell viability assay.

GT3TKB = type: functional, cell-based
Description: SANGER: Inhibition of human GT3TKB cell growth in a cell viability assay.

ES4 = type: functional, cell-based
Description: SANGER: Inhibition of human ES4 cell growth in a cell viability assay.

HEL = type: functional, cell-based
Description: SANGER: Inhibition of human HEL cell growth in a cell viability assay.

D-502MG = type: functional, cell-based
Description: SANGER: Inhibition of human D-502MG cell growth in a cell viability assay.

NB13 = type: functional, cell-based
Description: SANGER: Inhibition of human NB13 cell growth in a cell viability assay.

HOP-62 = type: functional, cell-based
Description: SANGER: Inhibition of human HOP-62 cell growth in a cell viability assay.

NCI-H2126 = type: functional, cell-based
Description: SANGER: Inhibition of human NCI-H2126 cell growth in a cell viability assay.

Measured: IC50

CC(=O)c1c(C)c2cnc(Nc3ccc(N4CCNCC4)cn3)nc2n(C2CCCC2)c1=O [PALBOCICLIB]
0.852 µM: JVM-3
3.05 µM: NCI-H1299
3.2 µM: TK-10
0.637 µM: MHH-PREB-1
3.62 µM: KP-N-YS
2.96 µM: Becker
2.32 µM: NCI-H747
2.35 µM: HCC2218
1.7 µM: DEL
1.29 µM: HEL
1.05 µM: TE-11
2.82 µM: KGN
0.514 µM: MV4-11
1.59 µM: RPMI-8866
1.87 µM: L-363
1.08 µM: A3-KAW
0.813 µM: RXF 393
0.258 µM: LAMA-84
0.941 µM: NCI-H1770
0.729 µM: ES3
1.16 µM: SNU1
2.45 µM: ES4
0.651 µM: EM-2
0.273 µM: ES7
0.605 µM: ES8
1.51 µM: BB65-RCC
0.162 µM: NB69
2.59 µM: GT3TKB
not listed: HOP-62 | NCI-H2126
> 4 µM: all other assays above

CCCS(=O)(=O)Nc1ccc(F)c(C(=O)c2c[nH]c3ncc(Cl)cc23)c1F [PLX-4720]
9.57 µM: JVM-3
0.878 µM: HCC2218
1.15 µM: MZ7-mel
4.49 µM: NB13
> 10 µM: all other assays above
